The term IC50 denotes the concentration that inhibits the measured activity by half.

Experimental findings from US20230137849A1, “USE OF A COMPOUND OF THE DIURETICS CLASS FOR TREATING CANCER” (AZELEAD, priority 2017, published 2023) are described below.

Data set [1] deals with hematopoietic stem cells CD41:GFP accumulated in the CHT. The format is in vivo. The following applies: for reduction of the number of HSCs accumulated in CHT: 24 h; for invasion of CHT by CD41:GFP cells / number of cells having colonized CHT, in words: thiazide compounds test, 10 μM or 25 μM, FIG. 9. The source says: A method for determining whether a molecule is capable of treating cancer in the pre-metastatic state has been described in international application WO 2011/007259. This method consists in isolating molecules capable of inhibiting the emergence of hematopoietic stem cells from the floor of the aorta without cell division, but by endothelial-to-hematopoietic transition. This emergence involves the loss of cell polarity of emerging cells, the loss of cellular junctions with these neighboring cells and the acquisition of migratory properties. This model is used because it mimics each stage of the epithelial-mesenchymal transition, the first stage of cancer metastasis. The endothelial-to-hematopoietic transition takes place in a region of the embryo called Aorta-Gonad-Mesonephros (AGM).
The colonization of hematopoietic tissues by hematopoietic stem cells mimics the appearance and/or progression of a metastatic cancerous tumor since it involves intravasation, extravasation, or the migration of HSCs following a gradient of SDF-1. The first colonized tissue is caudal hematopoietic tissue (CHT).
In order to evaluate the inhibition of the endothelial-to-hematopoietic transition, transgenic CD41:GFP (green fluorescent protein) embryos are used. HSCs express GFP under the control of the CD41 promoter, which allows them to be monitored in vivo under a fluorescence microscope. The read-out is the number of hematopoietic stem cells CD41:GFP accumulated in the AGM (mimicking the initiation of the metastatic process) and/or in the CHT of the zebrafish embryo (mimicking the progression of the metastatic process). The accumulation of CD41:GFP cells in CHT implies that each cell has made an endothelial-to-hematopoietic transition, intravasation, extravasation at the CHT level, has settled in a stromal niche and has proliferated.
The Tg transgenic zebrafish line (CD41:GFP) is maintained in accordance with the protocols described by the Ethical Committee for Animal Experimentation. The fish are kept at a temperature of 28° C. and their development stage is determined as before. The molecules are tested on zebrafish embryos at the 25 hpf stage. The embryos are decorticated and transferred to a 96-well plate (1 embryo/well) containing the test compounds in a final volume of 100 μl of the embryonic growth medium (60 μg salt for 1 ml H2O). […] The treated embryos are incubated for 24 hours in an incubator at 28° C.
The embryos are imaged with a plate reader after being anesthetized with 0.16% tricaine (ethyl-3-aminobenzoate). A quantification of the number of fluorescent cells (CD41:GFP) accumulated in the CHT is carried out.
Althiazide was tested on the zebrafish embryo according to the method previously described in the international application WO 2011/007259. This method consists in isolating molecules capable of inhibiting the emergence of hematopoietic stem cells from the floor of the aorta without cell division, but by endothelial-to-hematopoietic transition. This emergence involves the loss of cell polarity of emerging cells, the loss of cellular junctions with these neighboring cells and the acquisition of migratory properties. This model is used, in the context of the invention, because it mimics each of the stages of the epithelial-to-mesenchymal transition, the first stage of the cancerous metastasis. The endothelial-to-hematopoietic transition takes place in a region of the embryo called Aorto-Gonado-Mesonephros (AGM).
The colonization of hematopoietic tissues by hematopoietic stem cells mimics the appearance and/or progression of a metastatic tumor since it involves intravasation, extravasation, or the migration of HSCs following a gradient of SDF1. The first colonized tissue is caudal hematopoietic tissue (CHT). This physiological process is considered, in the context of the invention, as representative of the appearance and/or progression of a metastatic tumor. […]

Data set [2] in a line: Stability test of enantiomers: racemization followed by SFC chiral purity analysis. Format: physicochemical. As to the method:
The analysis of the chiral purity of the products to be tested was carried out by a supercritical fluid separation (SFC) technique on a Berger prep chromatograph, marketed by Thar Instruments. The mobile phase of the separation consists of a mixture of methanol added. 0.01% acetic acid and CO2 in a 20/80 ratio. The stationary phase chosen is a Chiralpak IC […] column, 250 mm by 20 mm, marketed by sigma aldrich. The injection rate is 50 ml per minute, at 40° C. under a pressure of 100 bar. The product to be analyzed is dissolved in methanol supplemented with 0.01% acetic acid, with a concentration of 1 mg/ml. 10 μl of this product is injected. The detector is a UV detector with a wavelength greater than 275 nm.
(§1) The stability tests of the enantiomers were performed by comparing the racemization and the degradation of the stored samples either at room temperature without protection against light, or under controlled temperature at 5° C. and protected from light.
(§2) The stored products are analyzed regularly (T=0, 1 h, 2 h, 3 h, 6 h, 24 h) to follow the evolution of the racemization of enantiomers.
(§3) After separation by SFC acetonitrile version 2, 1.5 mg of EV-VZWOO 1-070-005 and 2.4 mg of EV-VZWOO 1-070-006 are removed for stability testing.
(§4) Sample EV-VZWOO 1-070-005 is stored at a temperature of 5° C. under light protection conditions. Sample EV-VZWOO 1-070-006 is stored at room temperature on the bench without protection against light.

A short description of data set [3]: Stability test of enantiomers: degradation followed by UHPLC reverse phase purity. The format is physicochemical. As to the method:
The analysis of the reverse phase purity of the products to be tested was carried out by an ultra-high pressure liquid chromatography (UHPLC) reverse phase chromatography technique on a Waters UPLC2 liquid chromatograph, marketed by Waters. The mobile phase of the separation varies during the method according to the protocol of Table 1.
as §1, §2, §3, §4

The test system of data set [4] is MDA-MB-231 cells. Description: Cytotoxicity potentiation test: MTT cell viability of MDA-MB-231 cells, doxorubicin +/- althiazide. Format: cell-based, human. The following applies: Homo sapiens, MDA-MB-231, 24 h, 24 h, 1% O2. The protocol:
The cell cultures are carried out on human breast cancer epithelial cell lines MDA-MB-231 (HTB-26™), resulting from metastases present in a pleural effusion of a patient with a mammary adenocarcinoma. This line is used as a triple negative cancer cell model (no expression of ER-type nuclear estrogen receptors, nuclear progesterone receptors or overexpression of the oncogene encoding HER2 protein (Human Epidermal Growth factor Receptor-2).
The cell viability is determined via the IC50 index, measured by the MTT technique (2-(4,5-dimethyl-2-thiazolyl)-3,5-diphenyl-2H-tetrazolium bromide) (Mosmann, 1983). This colorimetric test is based on the reduction of yellow tetrazolium salts into insoluble purple formazan crystals in aqueous solution. The spectrophotometric measurement of the absorbance at 570 nm is directly proportional to the number of viable cells
The cells were seeded in 96-well plates at a density of 25,000 cells per well. After 24 h of culture at 37° C., 5% CO2 and 1% O2, the medium was renewed and supplemented with increasing doses of doxorubicin+/−althiazide. Cells were incubated for 24 h at 37° C., 5% CO2 and 1% O2. The MDA-MB-231 cells were washed and then incubated for 1 hour at 37° C. with 100 μl of a 0.5 mg/ml MTT solution prepared in culture medium. The formazan crystals were dissolved in […] and the absorbance measured at 570 nm using the Tecan Sunrise spectrophotometer. The IC50 was determined using the Graphpad Prism 5.0 software. The treatments were carried out in triplicate and the manipulation was carried out 5 times.
The tests are carried out in cell culture in 96-well plates, on the cell line MDA-MB-231. The MDA-MB-231 cells are seeded in 96-well plates at a density of 10,000 cells and incubated 24 h at 37° C., 5% CO2 and 1% O2. The medium is then renewed and added with increasing concentrations of doxorubicin+/−100 μM althiazide. The cells are incubated for an additional 24 hours at 37° C., 5% CO2 and 1% O2. Treatments were made in triplicas and the experiment was repeated 5 times.
A cell viability test is then performed according to the method described in Materials and methods.
Results are normalized to the control condition (FIG. 12)

[5] abbreviates: 10 μM (FIG. 3; b188 prints 10 μl), vs reference embryos treated with DMSO.
[6] abbreviates: 0 h, stored at 5° C. protected from light.
Where [7] appears, read: 1 h, stored at 5° C. protected from light.
Setting [8] is: 2 h, stored at 5° C. protected from light.
The mark [9] stands for this setting: 3 h, stored at 5° C. protected from light.
Setting [10] is: 6 h, stored at 5° C. protected from light.
[11] abbreviates: 24 h, stored at 5° C. protected from light.
[12] abbreviates: 0 h, stored at room temperature without protection against light.
Setting [13] is: 1 h, stored at room temperature without protection against light.
[14] abbreviates: 2 h, stored at room temperature without protection against light.
Where [15] appears, read: 3 h, stored at room temperature without protection against light.
Setting [16] is: 6 h, stored at room temperature without protection against light.
[17] abbreviates: 24 h, stored at room temperature without protection against light.

Where a name gives a salt, the structure may show the parent alone. Read-outs that look alike come from different tables or passages of the source.

Regarding `Cc1ccccc1N1C(=O)c2cc(S(N)(=O)=O)c(Cl)cc2NC1C` (stereo not shown) [Metolazone, reference compound], the “reduction of the number of HSCs accumulated in CHT” value (“reduction” below) in data set [1] (setting [5]) was “do not cause a decrease”.
The same measure, in the same setting: as for `C[N+]1(CCCCC[N+]2(C)CCCC2)CCCC1.O=C([O-])C(O)C(O)C(=O)O.O=C([O-])C(O)C(O)C(=O)O` [Pentolinium-bitartrate, reference compound], the entry is “do not cause a decrease”.
`NNc1nncc2ccccc12` [Hydralazine-hydrochloride, reference compound]: the “reduction” value in data set [1] (setting [5]) was “do not cause a decrease”.
Regarding `C=CCSC[C@@H]1Nc2cc(Cl)c(S(N)(=O)=O)cc2S(=O)(=O)N1` [AZ(A)], the “invasion of CHT by CD41:GFP cells / number of cells having colonized CHT, in words” value in data set [1] is given as “further reduce”. In addition, the “SFC AZ(A) (%)” value in data set [2] (setting [6]), in data set [2] (setting [7]), in data set [2] (setting [8]), in data set [2] (setting [9]), in data set [2] (setting [10]) and in data set [2] (setting [11]) was 100% each time. Also, the “SFC AZ(B) (%)” value in data set [2] (setting [6]), in data set [2] (setting [7]), in data set [2] (setting [8]), in data set [2] (setting [9]), in data set [2] (setting [10]) and in data set [2] (setting [11]) was 0% throughout. In addition, the UHPLC Pureté en phase inverse is 99.9% in data set [3] (setting [6]) and 94.9% in data set [3] (setting [11]).
On to `C=CCSC[C@H]1Nc2cc(Cl)c(S(N)(=O)=O)cc2S(=O)(=O)N1` [AZ(B)], for which, in data set [1], the “invasion of CHT by CD41:GFP cells / number of cells having colonized CHT, in words” value is on record as “further reduce”. Besides, the “SFC AZ(A) (%)” value in data set [2] (setting [12]) is reported as 0.6%; in data set [2] (setting [13]), 1.2%; in data set [2] (setting [14]), 1.2%; in data set [2] (setting [15]), 1.7%; in data set [2] (setting [16]) it was 3%; in data set [2] (setting [17]) it was 9.7%. The “SFC AZ(B) (%)” value in data set [2] (setting [12]) came out at 99.4%; in data set [2] (setting [13]), 98.8%; in data set [2] (setting [14]), 98.8%; in data set [2] (setting [15]) it was 98.3%; in data set [2] (setting [16]), 97%; in data set [2] (setting [17]), 90.3%. In addition, the UHPLC Pureté en phase inverse in data set [3] (setting [12]) is 100%; in data set [3] (setting [17]), 90.5%.
As for `COc1cccc2c1C(=O)c1c(O)c3c(c(O)c1C2=O)C[C@@](O)(C(=O)CO)C[C@@H]3O[C@H]1C[C@H](N)[C@H](O)[C@H](C)O1` [doxorubicin, reference compound], the IC50 in data set [4] (doxorubicin + 100 μM althiazide) amounted to 3.32 µM; in data set [4] (doxorubicin alone), 6.02 µM.
On to `NS(=O)(=O)c1cc2c(cc1Cl)NCNS2(=O)=O` [Hydrochlorothiazide, reference compound], for which the “reduction” value in data set [1] (10 µM) was 20%.
As for `NS(=O)(=O)c1cc(C2(O)NC(=O)c3ccccc32)ccc1Cl` (stereo not shown) [Chlortalidone, reference compound], the “reduction” value in data set [1] (setting [5]) is “do not cause a decrease”.
